Calls of active or inactive are those of the source.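 The calls were made as follows: active = AC50, the dose giving half-maximal effect, exceeds a fixed cutoff for a compound that rescues yeast growth under heat; inactive = the rest, inconclusive results apart.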
Each compound was assayed on S. cerevisiae Burl-1 ts mutant growth, BacTiter-Glo, 38.5C 24 h (assay: growth induction of Burl-1 ts yeast mutant, dose response, counter-screen for SUMOylation pathway inhibitor project, whole organism, S. cerevisiae, luminescence (AID 463199)).
Cc1c(NC(=O)c2cc(-c3ccccc3O)on2)c(=O)n(-c2ccccc2)n1C was tested, and the AC50 was > 42 µM (inactive).
With CCOc1ccc2nc(C(C)O)[nH]c2c1 (stereo unspecified) the AC50 was > 42 µM (inactive).
In the case of CC1=C(C(=O)N2CCOCC2)C(c2ccc(O)cc2)NC(=S)N1 (stereo unspecified), the AC50 is reported as > 42 µM (inactive).
In the case of O=C(COc1cnc2ccccc2n1)NCCC1=CCCCC1, the AC50 is reported as > 42 µM (inactive).
CCN(CC)c1ccc2c(C)c(CN3CCOCC3)c(=O)oc2c1 was tested, and the AC50 was > 42 µM (inactive).
For COc1ccc(CN2C(=O)c3c(c(C)n(C)c3C)C2C(=O)NC2CCC(C)CC2)cc1 (stereo unspecified), the AC50 was > 42 µM (inactive).
In the case of COc1cccc(CNC(=O)CCCn2nc(C)c3c(C)n(-c4ccccc4)nc3c2=O)c1, the AC50 is reported as > 42 µM (inactive).
With Cc1ccc(-n2nnnc2SCC#N)cc1 the AC50 was > 42 µM (inactive).
For CCC(C)(C)NC(=O)C(c1ccc(C)cc1)N(CC1CCCO1)C(=O)CNC(=O)c1cccs1 (stereo unspecified), the AC50 was > 42 µM (inactive).
With COc1ccc(CNS(=O)(=O)c2ccc3c(c2)CCN3C(=O)C2CCC2)cc1 the AC50 was > 42 µM (inactive).
With CCOc1ccc(NC(=O)CC2C(=O)N(c3ccccc3)C(=S)N2Cc2ccccn2)cc1 (stereo unspecified) the AC50 was > 42 µM (inactive).
With CCCCOc1ccc(C(=O)Nc2ccc(N3CCN(C)CC3)cc2)cc1 the AC50 was > 42 µM (inactive).
For C[C@H]1CN=C(Nc2ccccc2)N1CCC1CCCC1, the AC50 was > 42 µM (inactive).
With OC1CN=C2CCCc3c2n(c2ccc(Cl)cc32)C1 (stereo unspecified) the AC50 was > 42 µM (inactive).
In the case of O=C(CSc1cccc2cccnc12)Nc1cc(C(=O)O)cc(C(=O)O)c1, the AC50 is reported as > 42 µM (inactive).
In the case of COCCNCc1ccccc1, the AC50 is reported as > 42 µM (inactive).
For Cc1cc(NC(=O)c2ccccc2F)n(C(C)(C)C)n1, the AC50 was > 42 µM (inactive).
In the case of CC1=CC(=O)C=CC1(C)C(Cl)(Cl)Cl (stereo unspecified), the AC50 is reported as > 42 µM (inactive).
For CN1CCN(CC(=O)N2c3ccccc3C(=O)Nc3cccnc32)CC1, the AC50 was > 42 µM (inactive).
With Cc1ccc(NC(=O)/C=N/OCC(=O)NCc2ccccc2Cl)cc1 the AC50 was > 42 µM (inactive).
COc1cccc(CN(C)C(=O)C2CCC(=O)N(Cc3cccc(F)c3)C2)c1 (stereo unspecified) was tested, and the AC50 was > 42 µM (inactive).
With O=C(COC(=O)CNC(=O)c1ccc(Cl)cc1)Nc1ncc(C(F)(F)F)cc1Cl the AC50 was > 42 µM (inactive).
In the case of COc1ccc(NC(=O)CCC(=O)Nc2nnc(C(F)(F)F)s2)c(OC)c1, the AC50 is reported as > 42 µM (inactive).
CC(NC(=O)c1ccc(Cl)cc1)C(=O)N1CCCCC1 (stereo unspecified) was tested, and the AC50 was > 42 µM (inactive).
Cc1ccc(CNC(=O)CCNS(=O)(=O)c2cccs2)cc1 was tested, and the AC50 was > 42 µM (inactive).
For Cc1ccc(NC(=O)C(=O)NCC2CCCN2S(=O)(=O)c2cccs2)cc1 (stereo unspecified), the AC50 was > 42 µM (inactive).
In the case of CCOC(=O)C1CCN(CC(O)COCc2ccccc2)CC1 (stereo unspecified), the AC50 is reported as > 42 µM (inactive).
In the case of CCCCNS(=O)(=O)c1ccc2c(c1)oc(=O)n2CC(=O)OCC, the AC50 is reported as > 42 µM (inactive).
O=C(COc1ccccc1)NCCS(=O)(=O)N1CCN(c2ccccc2)CC1 was tested, and the AC50 was > 42 µM (inactive).
In the case of CCOCCCNCc1ccc(OCc2ccc(F)cc2)c(OC)c1, the AC50 is reported as > 42 µM (inactive).
With Cn1c(=NC(=O)COc2ccccc2)sc2cc(F)cc(F)c21 the AC50 was > 42 µM (inactive).
COCCNC(=O)NC(=O)CSc1nc(C)c(C)c(C)n1 was tested, and the AC50 was > 42 µM (inactive).
For COc1cc(NC(=O)CN2CCN(CC(=O)Nc3ccccc3OC)CC2)cc(OC)c1, the AC50 was > 42 µM (inactive).
For Cc1ccc(NC(=S)N2CCN(Cc3ccc4c(c3)OCO4)CC2)c(C)c1, the AC50 was > 42 µM (inactive).
With C=CCNC(=O)c1onc(CSc2cccc(C)c2)c1C(=O)O the AC50 was > 42 µM (inactive).
For c1ccc2nc3c(nc2c1)OCC1CCCCN31 (stereo unspecified), the AC50 was > 42 µM (inactive).
For NC(=O)c1cc(S(=O)(=O)N2CCCC2)ccc1OCc1ccc(F)cc1, the AC50 was > 42 µM (inactive).
With CCCCn1c2nc3ccccc3nc2c2c(=O)n(CCC)cnc21 the AC50 was > 42 µM (inactive).
With Cc1nc2sc(C(c3ccccc3)N3CCC(O)CC3)c(O)n2n1 (stereo unspecified) the AC50 was > 42 µM (inactive).
With CCC(=O)N(Cc1ccc2c(c1)OCO2)Cc1cc2cc(OC)ccc2[nH]c1=O the AC50 was > 42 µM (inactive).
Cc1ccccc1NC(=O)COC(=O)C1C2CC3OC(=O)C1C3C2 (stereo unspecified) was tested, and the AC50 was > 42 µM (inactive).
O=C(CCCNC(=O)/C(=C/c1ccccc1F)NC(=O)c1ccccc1)OCc1ccccc1 was tested, and the AC50 was > 42 µM (inactive).
Cc1cc(Oc2cc(NN3CCCCC3)c([N+](=O)[O-])cc2[N+](=O)[O-])ccc1[N+](=O)[O-] was tested, and the AC50 was > 42 µM (inactive).
In the case of CC(=O)c1ccc(N2CCN(CC(=O)Nc3cc(C)on3)CC2)cc1, the AC50 is reported as > 42 µM (inactive).
In the case of O=C1N=C(N2CCOCC2)S/C1=C\c1cccnc1, the AC50 is reported as > 42 µM (inactive).
CC1(C)C=C(c2ccc(O)cc2)CC(C)(C)N1 was tested, and the AC50 was > 42 µM (inactive).
In the case of COc1cccc(NC(=O)Nc2cc(C(=O)NC(C)C)ccc2N2CC3CC(C2)c2cccc(=O)n2C3)c1 (stereo unspecified), the AC50 is reported as > 42 µM (inactive).
CNC(=O)NNC(=O)c1csc(-c2ccc(C(F)(F)F)cc2Cl)n1 was tested, and the AC50 was > 42 µM (inactive).
Cn1nc(C(C)(C)C)c([N+](=O)[O-])c1C(=O)Nc1ccccc1 was tested, and the AC50 was > 42 µM (inactive).
COc1ccc(-c2csc(NC(=O)CCS(=O)(=O)c3ccccc3)n2)c(OC)c1 was tested, and the AC50 was > 42 µM (inactive).
COc1ccc(Oc2c(C)oc3cc(OC(=O)N(C)C)ccc3c2=O)cc1 was tested, and the AC50 was > 42 µM (inactive).

Reference: PubChem BioAssay AID463199 (Broad Institute, 2010)
